Experimental data: US20090076131A1, “Anti-Cancer and Anti-Inflammatory Effects of Annurca Apple Extracts and Compositions Purified Therefrom” (BAYLOR RESEARCH INSTITUTE, priority 2007, published 2009)

Legend:
[1] = system: p14^ARF; experiment: mRNA expression by conventional RT-PCR; format: cell-based, Human
Experimental: (§1) Conventional RT-PCR was also performed to assess the mRNA expression of p14^ARF 27, p16^INK4a 28, hMLH1^29, DNMT-1^30 and DNMT-3b^31. cDNA was generated with random hexamers using 2 μg of RNA. The PCR was performed as previously reported^32. β-actin was used as an endogenous control. The statistical significance of differences between the experimental points or between groups was analyzed using Student's t-test; and differences were considered significant when P<0.05.

[2] = system: p16^INK4a; experiment: mRNA expression by conventional RT-PCR; format: cell-based, Human
Experimental: as §1

## Nc1ncn([C@H]2C[C@H](O)[C@@H](CO)O2)c(=O)n1 [5-aza-2dC, 5-aza-2′deoxycytidine]
[1]; RKO
  p14^ARF RNA transcripts: re-expression
[1]; SW48 cells
  p14^ARF RNA transcripts: appearance of RNA transcripts
[2]; RKO
  p16^INK4a RNA transcripts: re-expression
[2]; SW48 cells
  p16^INK4a RNA transcripts: appearance of RNA transcripts
